From ChEMBL document CHEMBL1127134, “Synthesis and antibacterial activity of (1R,5R,6R)-2-tert-butyl-6-(1-hydroxyethyl)oxapenem-3-carboxylic acid” (1993)
In brackets after ≈: the same amount, converted by molar mass.

How the values were obtained:
Assay type in all cases: functional
Bacteroides fragilis [1] = assay: Minimum inhibitory concentration required for the antibacterial activity against Bacillus fragilis 4891/91 Kr
Bacteroides fragilis [2] = assay: Minimum inhibitory concentration required for the antibacterial activity against Bacillus fragilis DSM 2151
Bacteroides fragilis [3] = assay: Minimum inhibitory concentration required for the antibacterial activity against Bacillus fragilis ES 25
Bacteroides fragilis [4] = assay: Minimum inhibitory concentration required for the antibacterial activity against Bacillus fragilis GA I - 0558 Japan
Bacteroides fragilis [5] = assay: Minimum inhibitory concentration required for the antibacterial activity against Bacillus fragilis Kr 1 TV
Bacteroides fragilis [6] = assay: Minimum inhibitory concentration required for the antibacterial activity against Bacillus fragilis Kr II
Bacteroides fragilis [7] = assay: Minimum inhibitory concentration required for the antibacterial activity against Bacillus fragilis L 1168 Italien
[8] = system: Prevotella melaninogenica; assay: Minimum inhibitory concentration required for the antibacterial activity against Bacillus melaninogenicus Heidelberg
[9] = system: Prevotella melaninogenica; assay: Minimum inhibitory concentration required for the antibacterial activity against Bacillus melaninogenicus Kr
[10] = system: Parabacteroides distasonis; assay: Minimum inhibitory concentration required for the antibacterial activity against Bacillus distasonis Heidelberg
[11] = system: Parabacteroides distasonis; assay: Minimum inhibitory concentration required for the antibacterial activity against Bacillus distasonis Kr
Bacteroides fragilis [12] = assay: Minimum inhibitory concentration required for the antibacterial activity against Bacillus fragilis 010848
Bacteroides fragilis [13] = assay: Minimum inhibitory concentration required for the antibacterial activity against Bacillus fragilis 06688
Bacteroides fragilis [14] = assay: Minimum inhibitory concentration required for the antibacterial activity against Bacillus fragilis 1560 I/82
Bacteroides fragilis [15] = assay: Minimum inhibitory concentration required for the antibacterial activity against Bacillus fragilis 2034/35 Kr 43
Bacteroides fragilis [16] = assay: Minimum inhibitory concentration required for the antibacterial activity against Bacillus fragilis 4661 Kr
[17] = system: Bacteroides thetaiotaomicron; assay: Minimum inhibitory concentration required for the antibacterial activity against Bacillus thetaiotaomicron 235 Munchen
[18] = system: Bacteroides thetaiotaomicron; assay: Minimum inhibitory concentration required for the antibacterial activity against Bacillus thetaiotaomicron DSM 2079
Phocaeicola vulgatus = assay: Minimum inhibitory concentration required for the antibacterial activity against Bacillus valgatus Kr III
Clostridium perfringens [19] = assay: Minimum inhibitory concentration required for the antibacterial activity against Clostridium perfringens 1024027
Clostridium perfringens [20] = assay: Minimum inhibitory concentration required for the antibacterial activity against Clostridium perfringens 24071
Clostridium perfringens [21] = assay: Minimum inhibitory concentration required for the antibacterial activity against Clostridium perfringens 24072
Clostridium perfringens [22] = assay: Minimum inhibitory concentration required for the antibacterial activity against Clostridium perfringens DSM 756
Clostridium butyricum = assay: Minimum inhibitory concentration required for the antibacterial activity against Clostridium butyricum
Thomasclavelia ramosa = assay: Minimum inhibitory concentration required for the antibacterial activity against Clostridium ramosum DSM 1402
Clostridium sporogenes = assay: Minimum inhibitory concentration required for the antibacterial activity against Clostridium sporogenes
Fusobacterium nucleatum = assay: Minimum inhibitory concentration required for the antibacterial activity against Fusobacterium nucleatum DSM 20482
[23] = system: Peptostreptococcus anaerobius; assay: Minimum inhibitory concentration required for the antibacterial activity against Peptostrept. anaer. Kr I
[24] = system: Peptostreptococcus anaerobius; assay: Minimum inhibitory concentration required for the antibacterial activity against Peptostrept. anaer. Kr II
[25] = system: Peptostreptococcus anaerobius; assay: Minimum inhibitory concentration required for the antibacterial activity against Peptostrept. anaer. 222 I/82
[26] = system: Peptostreptococcus anaerobius; assay: Minimum inhibitory concentration required for the antibacterial activity against Peptostrept. anaer. DSM 20357
[27] = system: Peptoniphilus asaccharolyticus; assay: Minimum inhibitory concentration required for the antibacterial activity against Peptococcus asacchar. DSM 20463
Anaerococcus prevotii = assay: Minimum inhibitory concentration required for the antibacterial activity against Peptococcus prevotii DSM 20548
[28] = system: Fusobacterium necrophorum; assay: Minimum inhibitory concentration required for the antibacterial activity against Sphaerophorus necrophorus Kr
Clostridium septicum = assay: Minimum inhibitory concentration required for the antibacterial activity against Clostridium septicum
Staphylococcus aureus [29] = assay: Minimum inhibitory concentration required for the antibacterial activity against Staphylococcus aureus 13N Munchen
Staphylococcus aureus [30] = assay: Minimum inhibitory concentration required for the antibacterial activity against Staphylococcus aureus 1756; conditions: Staphylococcus aureus; read-out: MIC
Staphylococcus aureus [31] = assay: Minimum inhibitory concentration required for the antibacterial activity against Staphylococcus aureus 21b Belgium
Staphylococcus aureus [32] = assay: Minimum inhibitory concentration required for the antibacterial activity against Staphylococcus aureus 25085
Staphylococcus aureus [33] = assay: Minimum inhibitory concentration required for the antibacterial activity against Staphylococcus aureus 25463
Staphylococcus aureus [34] = assay: Minimum inhibitory concentration required for the antibacterial activity against Staphylococcus aureus 25464
Staphylococcus aureus [35] = assay: Minimum inhibitory concentration required for the antibacterial activity against Staphylococcus aureus 25470
Staphylococcus aureus [36] = assay: Minimum inhibitory concentration required for the antibacterial activity against Staphylococcus aureus 25697
Staphylococcus aureus [37] = assay: Minimum inhibitory concentration required for the antibacterial activity against Staphylococcus aureus 25768
Staphylococcus aureus [38] = assay: Minimum inhibitory concentration required for the antibacterial activity against Staphylococcus aureus 41h Belgium
Staphylococcus aureus [39] = assay: Minimum inhibitory concentration required for the antibacterial activity against Staphylococcus aureus 4978 Israel
Staphylococcus aureus [40] = assay: Minimum inhibitory concentration required for the antibacterial activity against Staphylococcus aureus 77 Innsbruck
Staphylococcus aureus [41] = assay: Minimum inhibitory concentration required for the antibacterial activity against Staphylococcus aureus 79B Innsbruck
Staphylococcus aureus [42] = assay: Minimum inhibitory concentration required for the antibacterial activity against Staphylococcus aureus 86 Innsbruck
Staphylococcus aureus [43] = assay: Minimum inhibitory concentration required for the antibacterial activity against Staphylococcus aureus 90 Innsbruck
Staphylococcus aureus [44] = assay: Minimum inhibitory concentration required for the antibacterial activity against Staphylococcus aureus 17N Munchen
Staphylococcus aureus [45] = assay: Minimum inhibitory concentration required for the antibacterial activity against Staphylococcus aureus 48N Munchen
Staphylococcus aureus [46] = assay: Minimum inhibitory concentration for the antibacterial activity against Staphylococcus aureus 48N Munchen

CO/N=C(\C(=O)N[C@@H]1C(=O)N2C(C(=O)O)=C(COC(C)=O)CS[C@H]12)c1csc(N)n1 [CEFOTAXIME]
MIC (Bacteroides fragilis [1]): 4 µg/mL (≈ 8.78 µM) | MIC (Bacteroides fragilis [2]): 4 µg/mL (≈ 8.78 µM) | MIC (Bacteroides fragilis [3]): 4 µg/mL (≈ 8.78 µM) | MIC (Bacteroides fragilis [4]): 8 µg/mL (≈ 17.6 µM) | MIC (Bacteroides fragilis [5]): 1 µg/mL (≈ 2.2 µM) | MIC (Bacteroides fragilis [6]): 2 µg/mL (≈ 4.39 µM) | MIC (Bacteroides fragilis [7]): 4 µg/mL (≈ 8.78 µM) | MIC [8]: 2 µg/mL (≈ 4.39 µM) | MIC [9]: 2 µg/mL (≈ 4.39 µM) | MIC [10]: 2 µg/mL (≈ 4.39 µM) | MIC [11]: 2 µg/mL (≈ 4.39 µM) | MIC (Bacteroides fragilis [12]): 16 µg/mL (≈ 35.1 µM) | MIC (Bacteroides fragilis [13]): 2 µg/mL (≈ 4.39 µM) | MIC (Bacteroides fragilis [14]): 2 µg/mL (≈ 4.39 µM) | MIC (Bacteroides fragilis [15]): > 128 µg/mL | MIC (Bacteroides fragilis [16]): 4 µg/mL (≈ 8.78 µM) | MIC [17]: 128 µg/mL (≈ 281 µM) | MIC [18]: 128 µg/mL (≈ 281 µM) | MIC (Phocaeicola vulgatus): 2 µg/mL (≈ 4.39 µM) | MIC (Clostridium perfringens [19]): ≤ 0.25 µg/mL | MIC (Clostridium perfringens [20]): 2 µg/mL (≈ 4.39 µM) | MIC (Clostridium perfringens [21]): 0.5 µg/mL (≈ 1.1 µM) | MIC (Clostridium perfringens [22]): ≤ 0.25 µg/mL | MIC (Clostridium butyricum): 1 µg/mL (≈ 2.2 µM) | MIC (Thomasclavelia ramosa): 2 µg/mL (≈ 4.39 µM) | MIC (Clostridium sporogenes): 0.5 µg/mL (≈ 1.1 µM) | MIC (Fusobacterium nucleatum): 0.5 µg/mL (≈ 1.1 µM) | MIC [23]: 32 µg/mL (≈ 70.3 µM) | MIC [24]: ≤ 0.25 µg/mL | MIC [25]: 0.5 µg/mL (≈ 1.1 µM) | MIC [26]: 16 µg/mL (≈ 35.1 µM) | MIC [27]: ≤ 0.25 µg/mL | MIC (Anaerococcus prevotii): 8 µg/mL (≈ 17.6 µM) | MIC [28]: 1 µg/mL (≈ 2.2 µM) | MIC (Clostridium septicum): 128 µg/mL (≈ 281 µM)

O=C(O)c1cn(C2CC2)c2cc(N3CCNCC3)c(F)cc2c1=O [CIPROFLOXACIN]
MIC (Staphylococcus aureus [29]): 1.56 µg/mL (≈ 4.71 µM) | MIC (Staphylococcus aureus [30]): ≤ 0.78 µg/mL | MIC (Staphylococcus aureus [31]): 50 µg/mL (≈ 151 µM) | MIC (Staphylococcus aureus [32]): ≤ 0.78 µg/mL | MIC (Staphylococcus aureus [33]): 1.56 µg/mL (≈ 4.71 µM) | MIC (Staphylococcus aureus [34]): ≤ 0.78 µg/mL | MIC (Staphylococcus aureus [35]): ≤ 0.78 µg/mL | MIC (Staphylococcus aureus [36]): 12.5 µg/mL (≈ 37.7 µM) | MIC (Staphylococcus aureus [37]): 100 µg/mL (≈ 302 µM) | MIC (Staphylococcus aureus [38]): 100 µg/mL (≈ 302 µM) | MIC (Staphylococcus aureus [39]): ≤ 0.78 µg/mL | MIC (Staphylococcus aureus [40]): > 100 µg/mL | MIC (Staphylococcus aureus [41]): 100 µg/mL (≈ 302 µM) | MIC (Staphylococcus aureus [42]): 100 µg/mL (≈ 302 µM) | MIC (Staphylococcus aureus [43]): 12.5 µg/mL (≈ 37.7 µM) | MIC (Staphylococcus aureus [44]): 12.5 µg/mL (≈ 37.7 µM) | MIC (Staphylococcus aureus [45]): 12.5 µg/mL (≈ 37.7 µM)

CO[C@@]1(NC(=O)Cc2cccs2)C(=O)N2C(C(=O)O)=C(COC(N)=O)CS[C@@H]21 [CEFOXITIN]
MIC (Staphylococcus aureus [29]): > 100 µg/mL | MIC (Staphylococcus aureus [30]): 50 µg/mL (≈ 117 µM) | MIC (Staphylococcus aureus [31]): ≤ 0.78 µg/mL | MIC (Staphylococcus aureus [32]): 12.5 µg/mL (≈ 29.2 µM) | MIC (Staphylococcus aureus [33]): 1.56 µg/mL (≈ 3.65 µM) | MIC (Staphylococcus aureus [34]): 50 µg/mL (≈ 117 µM) | MIC (Staphylococcus aureus [35]): > 100 µg/mL | MIC (Staphylococcus aureus [36]): 12.5 µg/mL (≈ 29.2 µM) | MIC (Staphylococcus aureus [37]): 12.5 µg/mL (≈ 29.2 µM) | MIC (Staphylococcus aureus [38]): 1.56 µg/mL (≈ 3.65 µM) | MIC (Staphylococcus aureus [39]): 1.56 µg/mL (≈ 3.65 µM) | MIC (Staphylococcus aureus [40]): 25 µg/mL (≈ 58.5 µM) | MIC (Staphylococcus aureus [41]): 25 µg/mL (≈ 58.5 µM) | MIC (Staphylococcus aureus [42]): 12.5 µg/mL (≈ 29.2 µM) | MIC (Staphylococcus aureus [43]): 100 µg/mL (≈ 234 µM) | MIC (Staphylococcus aureus [44]): 12.5 µg/mL (≈ 29.2 µM) | MIC (Staphylococcus aureus [45]): 6.25 µg/mL (≈ 14.6 µM)

COc1cccc(OC)c1C(=O)N[C@@H]1C(=O)N2[C@@H]1SC(C)(C)[C@@H]2C(=O)O [METHICILLIN]
MIC (Staphylococcus aureus [29]): 50 µg/mL (≈ 131 µM) | MIC (Staphylococcus aureus [30]): 50 µg/mL (≈ 131 µM) | MIC (Staphylococcus aureus [31]): > 100 µg/mL | MIC (Staphylococcus aureus [32]): 6.25 µg/mL (≈ 16.4 µM) | MIC (Staphylococcus aureus [33]): 1.56 µg/mL (≈ 4.1 µM) | MIC (Staphylococcus aureus [34]): > 100 µg/mL | MIC (Staphylococcus aureus [35]): > 100 µg/mL | MIC (Staphylococcus aureus [36]): 6.25 µg/mL (≈ 16.4 µM) | MIC (Staphylococcus aureus [37]): 6.25 µg/mL (≈ 16.4 µM) | MIC (Staphylococcus aureus [38]): > 100 µg/mL | MIC (Staphylococcus aureus [39]): ≤ 0.78 µg/mL | MIC (Staphylococcus aureus [40]): 50 µg/mL (≈ 131 µM) | MIC (Staphylococcus aureus [41]): 25 µg/mL (≈ 65.7 µM) | MIC (Staphylococcus aureus [42]): 25 µg/mL (≈ 65.7 µM) | MIC (Staphylococcus aureus [43]): 50 µg/mL (≈ 131 µM) | MIC (Staphylococcus aureus [46]): 6.25 µg/mL (≈ 16.4 µM) | MIC (Staphylococcus aureus [44]): 3.12 µg/mL (≈ 8.2 µM)
